From ChEMBL document CHEMBL3608291, “Chemical constituents of Miliusa balansae leaves and inhibition of nitric oxide production in lipopolysaccharide-induced RAW 264.7 cells” (Bioorg Med Chem Lett, 2015)
Activity calls are given as the source filed them. The rule behind the calls is not given here.

Experiments:
RAW264.7 [1] = experiment: Cytotoxicity against mouse RAW264.7 cells assessed as reduction in cell viability at 10 to 40 uM by MTT assay; assay type: cell-based; settings: raw264.7, 40 µM
RAW264.7 [2] = experiment: Anti-inflammatory activity in LPS-stimulated mouse RAW264.7 cells assessed as inhibition of nitric oxide production at 20 uM by Griess reaction based ELISA method; assay type: functional
RAW264.7 [3] = experiment: Anti-inflammatory activity in LPS-stimulated mouse RAW264.7 cells assessed as inhibition of nitric oxide production at 40 uM by Griess reaction based ELISA method; assay type: functional
RAW264.7 [4] = experiment: Anti-inflammatory activity in LPS-stimulated mouse RAW264.7 cells assessed as inhibition of nitric oxide production at 10 uM by Griess reaction based ELISA method; assay type: functional, cell-based
RAW264.7 [5] = experiment: Anti-inflammatory activity in LPS-stimulated mouse RAW264.7 cells assessed as inhibition of nitric oxide production at 10 to 40 uM by Griess reaction based ELISA method; assay type: functional

SMILES: C[C@H](/C=C/[C@@]1(O)[C@H](C)CC(=O)CC1(C)C)O[C@@H]1O[C@H](CO)[C@@H](O)[C@H](O)[C@H]1O
- Activity (RAW264.7 [1]): Non-toxic
- inhibition (RAW264.7 [2]): inactive
- inhibition (RAW264.7 [3]): inactive
- inhibition (RAW264.7 [4]): inactive

SMILES: CC(C)CC(=O)c1c(O)cc(O)cc1O[C@@H]1O[C@H](CO)[C@@H](O)[C@H](O)[C@H]1O
- Activity (RAW264.7 [1]): Non-toxic
- inhibition (RAW264.7 [2]): inactive
- inhibition (RAW264.7 [3]): inactive
- inhibition (RAW264.7 [4]): inactive

SMILES: COc1cc([C@H](O)[C@@H](O)CO)cc(OC)c1O (relative stereo)
- Activity (RAW264.7 [1]): Non-toxic
- inhibition (RAW264.7 [2]): inactive
- inhibition (RAW264.7 [3]): inactive
- inhibition (RAW264.7 [4]): inactive

SMILES: CC(=O)/C=C/[C@@]12O[C@@H](C[C@]1(C)O[C@@H]1O[C@H](CO[C@@H]3OC[C@](O)(CO)[C@H]3O)[C@@H](O)[C@H](O)[C@H]1O)[C@H](O)C2(C)C
- Activity (RAW264.7 [1]): Non-toxic
- inhibition at 20 µM (RAW264.7 [2]): 90.9%

SMILES: CC(=O)/C=C/[C@@]12O[C@@H](C[C@]1(C)O[C@@H]1O[C@H](CO)[C@@H](O)[C@H](O)[C@H]1O)[C@H](O)C2(C)C
- Activity (RAW264.7 [1]): Non-toxic
- inhibition at 20 µM (RAW264.7 [2]): 98.5%

SMILES: COc1cc([C@H](O)[C@H](O)CO)ccc1O (relative stereo)
- Activity (RAW264.7 [1]): Non-toxic
- inhibition (INH) (RAW264.7 [5]): 48.4%
- inhibition (RAW264.7 [2]): inactive
- inhibition (RAW264.7 [3]): inactive
- inhibition (RAW264.7 [4]): inactive

SMILES: C[C@@H]1O[C@@H](OC[C@H]2O[C@@H](Oc3c(-c4ccc(O)c(O)c4)oc4cc(O)cc(O)c4c3=O)[C@H](O)[C@@H](O)[C@@H]2O)[C@H](O)[C@H](O)[C@H]1O [RUTIN]
- Activity (RAW264.7 [1]): Non-toxic
- inhibition (RAW264.7 [2]): inactive
- inhibition (RAW264.7 [3]): inactive
- inhibition (RAW264.7 [4]): inactive

SMILES: COc1cc([C@H](O)[C@H](CO)O[C@@H]2O[C@H](CO)[C@@H](O)[C@H](O)[C@H]2O)ccc1O
- Activity (RAW264.7 [1]): Non-toxic
- inhibition (INH) (RAW264.7 [5]): 98%
- inhibition at 20 µM (RAW264.7 [2]): 91.5%

SMILES: O=C1/C(=C/c2ccc(O)c(O)c2)Oc2cc(O)ccc21 [SULFURETIN]
- inhibition at 20 µM (RAW264.7 [2]): 81.3%

SMILES: C[C@H](CC[C@H]1[C@H](C)CC(=O)CC1(C)C)O[C@@H]1O[C@H](CO)[C@@H](O)[C@H](O)[C@H]1O
- Activity (RAW264.7 [1]): Non-toxic
- inhibition (RAW264.7 [2]): inactive
- inhibition (RAW264.7 [3]): inactive
- inhibition (RAW264.7 [4]): inactive

SMILES: CC/C=C\CCO[C@@H]1O[C@H](CO)[C@@H](O)[C@H](O)[C@H]1O
- Activity (RAW264.7 [1]): Non-toxic
- inhibition at 20 µM (RAW264.7 [2]): 91.8%

SMILES: COc1cc([C@H](O)[C@H](O)CO)cc(OC)c1O (relative stereo)
- Activity (RAW264.7 [1]): Non-toxic
- inhibition (RAW264.7 [2]): inactive
- inhibition (RAW264.7 [3]): inactive
- inhibition (RAW264.7 [4]): inactive

SMILES: CC(=O)/C=C/[C@@]12O[C@@H](CC1(C)C)C[C@@]2(C)O[C@@H]1O[C@H](CO)[C@@H](O)[C@H](O)[C@H]1O
- Activity (RAW264.7 [1]): Non-toxic
- inhibition at 20 µM (RAW264.7 [2]): 84.8%

SMILES: COc1cc(-c2oc3cc(OC)c(O)c(O)c3c(=O)c2OC)ccc1O [CHRYSOSPLENOL C]
- Activity (RAW264.7 [1]): Non-toxic
- inhibition (RAW264.7 [2]): inactive
- inhibition (RAW264.7 [3]): inactive
- inhibition (RAW264.7 [4]): inactive

SMILES: Oc1cc(O)c2c(c1)O[C@H](c1ccc(O)c(O)c1)[C@H](O)C2 [(-)-EPICATECHIN]
- Activity (RAW264.7 [1]): Non-toxic
- inhibition (RAW264.7 [2]): Active
- inhibition at 40 µM (RAW264.7 [3]): 91.8%
- inhibition (RAW264.7 [4]): Active

SMILES: CC1=C2C[C@@H]3[C@@](C)(C[C@]2(O)OC1=O)[C@H](O)CC[C@]3(C)O
- Activity (RAW264.7 [1]): Non-toxic
- inhibition (RAW264.7 [2]): inactive
- inhibition (RAW264.7 [3]): inactive
- inhibition (RAW264.7 [4]): inactive

SMILES: CC1=C2C[C@@H]3[C@@](C)(C[C@]2(O)OC1=O)[C@H](O)CC[C@@]3(C)O [CHLORAEUDOLIDE]
- Activity (RAW264.7 [1]): Non-toxic
- inhibition (RAW264.7 [2]): inactive
- inhibition (RAW264.7 [3]): inactive
- inhibition (RAW264.7 [4]): inactive

SMILES: COc1cc([C@H](O)[C@@H](O)CO)ccc1O (relative stereo)
- Activity (RAW264.7 [1]): Non-toxic
- inhibition (INH) (RAW264.7 [5]): 48.4%
- inhibition (RAW264.7 [2]): inactive
- inhibition (RAW264.7 [3]): inactive
- inhibition (RAW264.7 [4]): inactive

SMILES: C[C@H](CC[C@H]1[C@H](C)C[C@H](O)CC1(C)C)O[C@@H]1O[C@H](CO)[C@@H](O)[C@H](O)[C@H]1O
- Activity (RAW264.7 [1]): Non-toxic
- inhibition (RAW264.7 [2]): Active
- inhibition at 40 µM (RAW264.7 [3]): 82%
- inhibition (RAW264.7 [4]): Active
